Source: PubChem BioAssay (NCI)
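Exposure lasted 48 hours, with cells grown in 96-well plates and compounds tested at five concentrations. GI50: concentration for 50% inhibition of growth. TGI is the concentration that stops growth completely.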

Legend:
Test in all cases: NCI anticancer screen, dose series, 48 h
K-562 leukemia = system: K-562 leukemia
CAKI-1 renal = system: CAKI-1 renal
HT29 colon = system: HT29 colon
SN12C renal = system: SN12C renal
MOLT-4 leukemia = system: MOLT-4 leukemia
RXF 393 renal = system: RXF 393 renal
NCI-H522 lung = system: NCI-H522 lung
SK-MEL-2 melanoma = system: SK-MEL-2 melanoma
HOP-92 NSCLC = system: HOP-92 NSCLC
SR leukemia = system: SR leukemia

Cc1ccc(SSCCCS(=O)O)cc1
TGI (K-562 leukemia): > 100 µM | TGI (CAKI-1 renal): > 100 µM | TGI (HT29 colon): > 100 µM | TGI (SN12C renal): > 100 µM | TGI (MOLT-4 leukemia): 50.6 µM | TGI (RXF 393 renal): 72.3 µM | TGI (NCI-H522 lung): 37.5 µM | TGI (SK-MEL-2 melanoma): > 100 µM

COC(=O)/C(C#N)=C\N1CCN(C(=O)c2ccco2)C1=S
GI50 (K-562 leukemia): 3.68 µM | TGI (K-562 leukemia): > 100 µM | GI50 (HOP-92 NSCLC): 14 µM | TGI (HOP-92 NSCLC): 43.1 µM | GI50 (CAKI-1 renal): 3.43 µM | TGI (CAKI-1 renal): 14.1 µM | GI50 (HT29 colon): 12.2 µM | TGI (HT29 colon): 55.1 µM | GI50 (SN12C renal): 3.69 µM | TGI (SN12C renal): 14.4 µM | GI50 (MOLT-4 leukemia): 7.41 µM | TGI (MOLT-4 leukemia): > 100 µM | GI50 (RXF 393 renal): 3.1 µM | TGI (RXF 393 renal): 7.71 µM | GI50 (SK-MEL-2 melanoma): 2.94 µM | TGI (SK-MEL-2 melanoma): 8.39 µM

CC1=C(C(=O)Nc2cccc(C(F)(F)F)c2)C(c2ccc(O)cc2)C(C(=O)Nc2cccc(C(F)(F)F)c2)=C(C)N1
TGI (K-562 leukemia): 44.7 µM | TGI (HOP-92 NSCLC): 39.3 µM | TGI (CAKI-1 renal): 59.3 µM | TGI (HT29 colon): 31.7 µM | TGI (MOLT-4 leukemia): 47 µM | TGI (RXF 393 renal): 36.9 µM | TGI (NCI-H522 lung): 34.4 µM | TGI (SK-MEL-2 melanoma): 34.6 µM

Cc1ccc2nc3c(Cl)cc(=O)cc-3sc2c1
TGI (K-562 leukemia): 56.1 µM | TGI (HOP-92 NSCLC): 36.7 µM | TGI (CAKI-1 renal): 71.1 µM | TGI (HT29 colon): 91.7 µM | TGI (MOLT-4 leukemia): 41.5 µM | TGI (NCI-H522 lung): 39 µM

CCCCCCCCCCCCCCCCOC(=O)C(C(=O)OCCCCCCCCCCCCCCCC)[N+](C)(C)CCOC(C)=O
TGI (K-562 leukemia): 41 µM | TGI (HOP-92 NSCLC): 18.5 µM | TGI (CAKI-1 renal): 30.9 µM | TGI (HT29 colon): 25.9 µM | TGI (SN12C renal): 35.3 µM | TGI (RXF 393 renal): 8.98 µM | TGI (NCI-H522 lung): 23.3 µM | TGI (SK-MEL-2 melanoma): 36.8 µM

CCSC1(SCC)CCN(C=NC(C)(C)C)C1
TGI (K-562 leukemia): > 100 µM | TGI (SR leukemia): > 100 µM | TGI (CAKI-1 renal): > 100 µM | TGI (HT29 colon): > 100 µM | TGI (SN12C renal): > 100 µM | TGI (MOLT-4 leukemia): > 100 µM | TGI (RXF 393 renal): > 100 µM | TGI (NCI-H522 lung): > 100 µM | TGI (SK-MEL-2 melanoma): > 100 µM

O=C(Nc1cccc(Cl)c1)Nc1cccc(Cl)c1
GI50 (K-562 leukemia): 3.23 µM | TGI (K-562 leukemia): > 100 µM | GI50 (HOP-92 NSCLC): 2.11 µM | TGI (HOP-92 NSCLC): > 100 µM | GI50 (HT29 colon): 2.26 µM | TGI (HT29 colon): > 100 µM | GI50 (SN12C renal): > 100 µM | TGI (SN12C renal): > 100 µM | GI50 (MOLT-4 leukemia): 23.8 µM | TGI (MOLT-4 leukemia): > 100 µM | GI50 (RXF 393 renal): 24.1 µM | TGI (RXF 393 renal): > 92.8 µM | GI50 (NCI-H522 lung): 2.04 µM | TGI (NCI-H522 lung): > 100 µM | GI50 (SK-MEL-2 melanoma): > 21.5 µM | TGI (SK-MEL-2 melanoma): > 100 µM

CC(=O)OC1C=CC2CCN3C(=O)c4cc5c(cc4[C@H]1C23)OCO5 (stereo partly drawn)
TGI (K-562 leukemia): > 100 µM | TGI (SR leukemia): > 100 µM | TGI (HT29 colon): > 100 µM | TGI (SN12C renal): > 100 µM | TGI (MOLT-4 leukemia): > 100 µM | TGI (RXF 393 renal): > 100 µM | TGI (NCI-H522 lung): > 100 µM

COc1ccc(Nc2c3ccccc3nc3c2c2ccccc2n3C)cc1
GI50 (K-562 leukemia): 5.57 µM | TGI (K-562 leukemia): > 100 µM | GI50 (SR leukemia): 2.75 µM | TGI (SR leukemia): 14 µM | GI50 (CAKI-1 renal): 30.7 µM | TGI (CAKI-1 renal): > 100 µM | GI50 (HT29 colon): 13.6 µM | TGI (HT29 colon): > 100 µM | GI50 (SN12C renal): 58.6 µM | TGI (SN12C renal): > 100 µM | GI50 (MOLT-4 leukemia): 1.88 µM | TGI (MOLT-4 leukemia): 5.36 µM | GI50 (RXF 393 renal): 64.9 µM | TGI (RXF 393 renal): > 100 µM | GI50 (NCI-H522 lung): 78.3 µM | TGI (NCI-H522 lung): > 100 µM | GI50 (SK-MEL-2 melanoma): 57.6 µM | TGI (SK-MEL-2 melanoma): > 100 µM

COc1ccc(/C=C2\N=C(c3ccccc3)OC2=O)c(OCc2ccccc2)c1
TGI (K-562 leukemia): > 100 µM | TGI (SR leukemia): > 100 µM | TGI (CAKI-1 renal): > 100 µM | TGI (SN12C renal): > 100 µM | TGI (MOLT-4 leukemia): 80.6 µM | TGI (NCI-H522 lung): 67.2 µM

O=[N+]([O-])c1cccc(C2SCc3nc4ccccc4n32)c1 (stereo not drawn)
TGI (K-562 leukemia): > 100 µM | TGI (HOP-92 NSCLC): > 100 µM | TGI (SR leukemia): > 100 µM | TGI (CAKI-1 renal): > 100 µM | TGI (HT29 colon): > 100 µM | TGI (SN12C renal): > 100 µM | TGI (MOLT-4 leukemia): > 100 µM | TGI (RXF 393 renal): > 100 µM | TGI (SK-MEL-2 melanoma): > 100 µM

C=C1C(=O)OC2CCCCC3OC3C12 (stereo not drawn)
TGI (K-562 leukemia): 70.5 µM | TGI (SR leukemia): 53.1 µM | TGI (CAKI-1 renal): 9.83 µM | TGI (HT29 colon): 32.2 µM | TGI (SN12C renal): 21.3 µM | TGI (MOLT-4 leukemia): 33.2 µM | TGI (RXF 393 renal): 30.1 µM | TGI (NCI-H522 lung): 3.91 µM | TGI (SK-MEL-2 melanoma): 27.5 µM

Cc1cc2c3ccccc3n(C)c2c2c1C(=O)c1ccccc1C2=O
TGI (K-562 leukemia): 55.1 µM | TGI (HOP-92 NSCLC): 35 µM | TGI (SR leukemia): 22.5 µM | TGI (CAKI-1 renal): 54.8 µM | TGI (HT29 colon): 73.2 µM | TGI (SN12C renal): 41.7 µM | TGI (MOLT-4 leukemia): 27.4 µM | TGI (NCI-H522 lung): 49.2 µM | TGI (SK-MEL-2 melanoma): 41.3 µM

O=C(CC(=O)N1N=C(n2ccc3ccccc32)CC1c1ccccc1)Nc1cccc(Cl)c1 (stereo not drawn)
TGI (K-562 leukemia): > 100 µM | TGI (HOP-92 NSCLC): > 100 µM | TGI (HT29 colon): > 100 µM | TGI (SN12C renal): > 100 µM | TGI (MOLT-4 leukemia): > 100 µM | TGI (RXF 393 renal): > 100 µM | TGI (NCI-H522 lung): > 100 µM | TGI (SK-MEL-2 melanoma): > 100 µM

CC1C2Cc3ccc(O)cc3C1(C)CCN2C (stereo not drawn)
TGI (K-562 leukemia): > 100 µM | TGI (SR leukemia): > 100 µM | TGI (CAKI-1 renal): > 100 µM | TGI (HT29 colon): > 100 µM | TGI (SN12C renal): > 100 µM | TGI (MOLT-4 leukemia): > 100 µM | TGI (RXF 393 renal): > 100 µM | TGI (NCI-H522 lung): > 100 µM | TGI (SK-MEL-2 melanoma): > 100 µM

C/C=C/C=N/N(c1nnc(-c2ccccc2)c(-c2ccccc2)n1)S(=O)(=O)c1ccc(C)cc1
TGI (K-562 leukemia): > 100 µM | TGI (HOP-92 NSCLC): 31.3 µM | TGI (SR leukemia): 21.1 µM | TGI (CAKI-1 renal): 31.4 µM | TGI (HT29 colon): 24.1 µM | TGI (SN12C renal): 20.7 µM | TGI (MOLT-4 leukemia): 26.6 µM | TGI (NCI-H522 lung): 19.4 µM | TGI (SK-MEL-2 melanoma): 24.1 µM

CN(C)c1cccc(-c2cc(=O)c3ccccc3[nH]2)c1
TGI (SR leukemia): > 100 µM | TGI (HT29 colon): > 100 µM | TGI (SN12C renal): > 100 µM | TGI (MOLT-4 leukemia): > 100 µM | GI50 (RXF 393 renal): 35.4 µM | TGI (RXF 393 renal): > 100 µM | TGI (NCI-H522 lung): 57.6 µM

OC1CN(OC/C=C/c2ccccc2)CC(O)C1O (stereo not drawn)
TGI (K-562 leukemia): > 100 µM | TGI (HOP-92 NSCLC): > 100 µM | TGI (CAKI-1 renal): > 100 µM | TGI (HT29 colon): > 100 µM | TGI (SN12C renal): > 100 µM | TGI (MOLT-4 leukemia): > 100 µM | TGI (RXF 393 renal): > 100 µM | TGI (SK-MEL-2 melanoma): > 100 µM

Cc1cc(C)nc(NS(=O)(=O)c2ccc(Nc3c4ccccc4nc4c(C(=O)NCCN(C)C)ccc(Cl)c34)cc2)n1
TGI (K-562 leukemia): 11.7 µM | TGI (SR leukemia): 5.46 µM | TGI (HT29 colon): 4.8 µM | TGI (SN12C renal): 8.2 µM | TGI (RXF 393 renal): 6.31 µM | TGI (NCI-H522 lung): 3.32 µM | TGI (SK-MEL-2 melanoma): 12.1 µM

O=C1CCCCC/C=C2/CC[C@H](Sc3ccccc3)[C@@H]12
TGI (K-562 leukemia): > 100 µM | TGI (SR leukemia): > 100 µM | TGI (HT29 colon): > 100 µM | TGI (SN12C renal): > 100 µM | TGI (MOLT-4 leukemia): > 100 µM | TGI (RXF 393 renal): > 100 µM | TGI (SK-MEL-2 melanoma): > 100 µM

NC(=S)N/N=C(/CC(=O)c1ccc([N+](=O)[O-])cc1)C(=O)Nc1ncc([N+](=O)[O-])s1
TGI (HOP-92 NSCLC): > 100 µM | TGI (HT29 colon): > 100 µM | TGI (SN12C renal): > 100 µM | TGI (MOLT-4 leukemia): > 100 µM | TGI (RXF 393 renal): > 100 µM | TGI (SK-MEL-2 melanoma): > 100 µM

COc1cccc(Nc2nc(NNC(=O)Cc3ccccc3)nc(NNC(=O)c3ccncc3)n2)c1
GI50 (K-562 leukemia): > 100 µM | TGI (K-562 leukemia): > 100 µM | TGI (SR leukemia): > 100 µM | GI50 (CAKI-1 renal): > 100 µM | TGI (CAKI-1 renal): > 100 µM | TGI (HT29 colon): > 100 µM | GI50 (SN12C renal): > 100 µM | TGI (SN12C renal): > 100 µM | TGI (MOLT-4 leukemia): > 100 µM | TGI (RXF 393 renal): > 100 µM | TGI (NCI-H522 lung): > 100 µM | TGI (SK-MEL-2 melanoma): > 100 µM

CN(C)CCNC(=O)c1cccc2nc3ccc4ccccc4c3nc12
TGI (K-562 leukemia): 25.6 µM | TGI (HOP-92 NSCLC): 0.392 µM | TGI (CAKI-1 renal): 0.541 µM | TGI (HT29 colon): 1.25 µM | TGI (SN12C renal): 0.342 µM | TGI (MOLT-4 leukemia): 0.124 µM | TGI (RXF 393 renal): 0.198 µM | TGI (SK-MEL-2 melanoma): 0.335 µM

CC(=O)CC(=O)CCCC(=O)Nc1ccc(Cl)cc1C
TGI (K-562 leukemia): > 100 µM | TGI (HOP-92 NSCLC): > 100 µM | TGI (CAKI-1 renal): > 100 µM | TGI (HT29 colon): > 100 µM | TGI (SN12C renal): > 100 µM | TGI (MOLT-4 leukemia): > 100 µM | TGI (NCI-H522 lung): > 100 µM | TGI (SK-MEL-2 melanoma): > 100 µM
